Results as given in the NIST ThermoML archive (doi:10.1016/j.jct.2019.03.007).
Numbers after ± are expanded uncertainties.

Assay: molar heat capacity at constant pressure
Conditions: 101.33 kPa, Crystal 1, DSC

O=[N+]([O-])[O-].O=[N+]([O-])[O-].[Ca+2] [calcium nitrate]
Conditions | molar heat capacity at constant pressure [J/K/mol]
361.78 K | 152.56 ± 11
362.18 K | 160.28 ± 11
362.78 K | 152.75 ± 11
363.18 K | 160.44 ± 11
363.78 K | 152.95 ± 11
364.18 K | 160.63 ± 11
364.78 K | 153.15 ± 11
365.18 K | 160.81 ± 11
365.78 K | 153.35 ± 11
366.18 K | 161.02 ± 11
366.78 K | 153.54 ± 11
367.18 K | 161.17 ± 11
367.78 K | 153.74 ± 11
368.18 K | 161.33 ± 11
368.78 K | 153.94 ± 11
369.18 K | 161.53 ± 11
369.78 K | 154.14 ± 11
370.18 K | 161.7 ± 11
370.78 K | 154.34 ± 11
371.18 K | 161.95 ± 11
371.78 K | 154.54 ± 11
372.18 K | 162.09 ± 11
372.78 K | 154.75 ± 11
373.18 K | 162.29 ± 11
373.78 K | 154.94 ± 11
374.18 K | 162.35 ± 11
374.78 K | 155.12 ± 11
375.18 K | 162.54 ± 11
375.78 K | 155.3 ± 11
376.18 K | 162.75 ± 11
376.78 K | 155.47 ± 11
377.18 K | 162.97 ± 11
377.78 K | 155.64 ± 11
378.18 K | 163.18 ± 11
378.78 K | 155.81 ± 11
379.18 K | 163.4 ± 11
379.78 K | 155.97 ± 11
380.18 K | 163.62 ± 11
380.78 K | 156.14 ± 11
381.18 K | 163.84 ± 11
381.78 K | 156.31 ± 11
382.18 K | 164.05 ± 11
382.78 K | 156.48 ± 11
383.18 K | 164.32 ± 11
383.78 K | 156.65 ± 11
384.18 K | 164.57 ± 11
384.78 K | 156.82 ± 11
385.18 K | 164.8 ± 12
385.78 K | 156.99 ± 11
386.18 K | 164.98 ± 12
386.78 K | 157.16 ± 11
387.18 K | 165.18 ± 12
387.78 K | 157.33 ± 11
388.18 K | 165.31 ± 12
388.78 K | 157.5 ± 11
389.18 K | 165.47 ± 12
389.78 K | 157.67 ± 11
390.18 K | 165.67 ± 12
390.78 K | 157.83 ± 11
391.18 K | 165.88 ± 12
391.78 K | 158 ± 11
392.18 K | 166.07 ± 12
392.78 K | 158.17 ± 11
393.18 K | 166.27 ± 12
393.78 K | 158.34 ± 11
394.18 K | 166.46 ± 12
394.78 K | 158.51 ± 11
395.18 K | 166.6 ± 12
395.78 K | 158.68 ± 11
396.18 K | 166.74 ± 12
396.78 K | 158.86 ± 11
397.18 K | 166.86 ± 12
397.78 K | 159.03 ± 11
398.18 K | 167.03 ± 12
398.78 K | 159.2 ± 11
399.18 K | 167.15 ± 12
399.78 K | 159.38 ± 11
400.18 K | 167.33 ± 12
400.78 K | 159.54 ± 11
401.18 K | 167.43 ± 12
401.78 K | 159.71 ± 11
402.18 K | 167.63 ± 12
402.78 K | 159.87 ± 11
403 K | 160.69 ± 11
403.18 K | 167.77 ± 12
403.78 K | 160.04 ± 11
404 K | 160.78 ± 11
404.18 K | 167.98 ± 12
404.78 K | 160.23 ± 11
405 K | 161.04 ± 11
405.18 K | 168.21 ± 12
405.78 K | 160.41 ± 11
406 K | 160.25 ± 11
406.18 K | 168.41 ± 12
406.78 K | 160.58 ± 11
407 K | 160.32 ± 11
407.18 K | 168.63 ± 12
407.78 K | 160.76 ± 11
408 K | 160.3 ± 11
408.18 K | 168.88 ± 12
408.78 K | 160.93 ± 11
409 K | 160.49 ± 11
409.18 K | 169.09 ± 12
409.78 K | 161.1 ± 11
410 K | 161.08 ± 11
410.18 K | 169.35 ± 12
410.78 K | 161.27 ± 11
411 K | 160.76 ± 11
411.18 K | 169.49 ± 12
411.78 K | 161.44 ± 11
412 K | 160.92 ± 11
412.18 K | 169.72 ± 12
412.78 K | 161.61 ± 11
413 K | 161.04 ± 11
413.18 K | 169.84 ± 12
413.78 K | 161.77 ± 11
414 K | 161.26 ± 11
414.18 K | 170.06 ± 12
414.78 K | 161.94 ± 11
415 K | 161.41 ± 11
415.18 K | 170.21 ± 12
415.78 K | 162.11 ± 11
416 K | 161.42 ± 11
416.18 K | 170.45 ± 12
416.78 K | 162.27 ± 11
417 K | 161.52 ± 11
417.18 K | 170.58 ± 12
417.78 K | 162.43 ± 11
418 K | 161.73 ± 11
418.18 K | 170.76 ± 12
418.78 K | 162.59 ± 11
419 K | 162.11 ± 11
419.18 K | 170.93 ± 12
419.78 K | 162.75 ± 11
420 K | 162.15 ± 11
420.18 K | 171.07 ± 12
420.78 K | 162.91 ± 11
421 K | 162.33 ± 11
421.18 K | 171.17 ± 12
421.78 K | 163.06 ± 11
422 K | 162.71 ± 11
422.18 K | 171.32 ± 12
422.78 K | 163.22 ± 11
423 K | 162.96 ± 11
423.18 K | 171.45 ± 12
423.78 K | 163.38 ± 11
424 K | 163.14 ± 11
424.18 K | 171.55 ± 12
424.78 K | 163.54 ± 11
425 K | 163.33 ± 11
425.18 K | 171.73 ± 12
425.78 K | 163.69 ± 11
426 K | 163.37 ± 11
426.18 K | 171.87 ± 12
426.78 K | 163.85 ± 11
427 K | 163.76 ± 11
427.18 K | 172.05 ± 12
427.78 K | 164.01 ± 11
428 K | 163.77 ± 11
428.18 K | 172.26 ± 12
428.78 K | 164.17 ± 11
429 K | 163.7 ± 11
429.18 K | 172.5 ± 12
429.78 K | 164.33 ± 11
430 K | 163.8 ± 11
430.18 K | 172.74 ± 12
430.78 K | 164.49 ± 11
431 K | 163.76 ± 11
431.18 K | 173.01 ± 12
431.78 K | 164.65 ± 11
432 K | 163.92 ± 11
432.18 K | 173.21 ± 12
432.78 K | 164.81 ± 11
433 K | 164.38 ± 11
433.18 K | 173.43 ± 12
433.78 K | 164.96 ± 12
434 K | 164.69 ± 11
434.18 K | 173.63 ± 12
434.78 K | 165.13 ± 12
435 K | 164.65 ± 11
435.18 K | 173.82 ± 12
435.78 K | 165.29 ± 12
436 K | 164.7 ± 11
436.18 K | 174.04 ± 12
436.78 K | 165.45 ± 12
437 K | 164.8 ± 12
437.18 K | 174.21 ± 12
437.78 K | 165.61 ± 12
438 K | 165.07 ± 12
438.18 K | 174.35 ± 12
438.78 K | 165.77 ± 12
439 K | 165.44 ± 12
439.18 K | 174.62 ± 12
439.78 K | 165.93 ± 12
440 K | 165.84 ± 12
440.18 K | 174.82 ± 12
440.78 K | 166.09 ± 12
441 K | 165.74 ± 12
441.18 K | 175.02 ± 12
441.78 K | 166.26 ± 12
442 K | 165.94 ± 12
442.18 K | 175.16 ± 12
442.78 K | 166.42 ± 12
443 K | 166.4 ± 12
443.18 K | 175.33 ± 12
443.78 K | 166.58 ± 12
444 K | 166.4 ± 12
444.18 K | 175.47 ± 12
444.78 K | 166.75 ± 12
445 K | 166.55 ± 12
445.18 K | 175.65 ± 12
445.78 K | 166.92 ± 12
446 K | 166.46 ± 12
446.18 K | 175.77 ± 12
446.78 K | 167.08 ± 12
447 K | 166.39 ± 12
447.18 K | 175.94 ± 12
447.78 K | 167.25 ± 12
448 K | 166.47 ± 12
448.18 K | 176.08 ± 12
448.78 K | 167.41 ± 12
449 K | 166.51 ± 12
449.18 K | 176.2 ± 12
449.78 K | 167.57 ± 12
450 K | 166.69 ± 12
450.18 K | 176.36 ± 12
450.78 K | 167.73 ± 12
451 K | 166.81 ± 12
451.18 K | 176.52 ± 12
451.78 K | 167.88 ± 12
452 K | 166.99 ± 12
452.18 K | 176.72 ± 12
452.78 K | 168.04 ± 12
453 K | 167.12 ± 12
453.18 K | 176.94 ± 12
453.78 K | 168.19 ± 12
454 K | 167.19 ± 12
454.18 K | 177.19 ± 12
454.78 K | 168.34 ± 12
455 K | 167.39 ± 12
455.18 K | 177.36 ± 12
455.78 K | 168.49 ± 12
456 K | 167.61 ± 12
456.18 K | 177.51 ± 12
456.78 K | 168.64 ± 12
457 K | 167.67 ± 12
457.18 K | 177.68 ± 12
457.78 K | 168.79 ± 12
458 K | 167.76 ± 12
458.18 K | 177.88 ± 12
458.78 K | 168.94 ± 12
459 K | 167.66 ± 12
459.18 K | 178.01 ± 12
459.78 K | 169.09 ± 12
460 K | 167.65 ± 12
460.18 K | 178.19 ± 12
